This passage reports IC50 results from patent US7741493B2, “Heterocyclic compounds as P2X7 ion channel blockers” (Aventis Pharmaceuticals Inc., priority 2003, dated 2010).

SMILES strings stand for the structures. pIC50: −log10 of the molar value. Counter-ions that a name gives are not always drawn.

For this assay, the target named is T1, P2X7 (Homo sapiens, UniProt Q99572).
T1 sequence (Q99572 1-595): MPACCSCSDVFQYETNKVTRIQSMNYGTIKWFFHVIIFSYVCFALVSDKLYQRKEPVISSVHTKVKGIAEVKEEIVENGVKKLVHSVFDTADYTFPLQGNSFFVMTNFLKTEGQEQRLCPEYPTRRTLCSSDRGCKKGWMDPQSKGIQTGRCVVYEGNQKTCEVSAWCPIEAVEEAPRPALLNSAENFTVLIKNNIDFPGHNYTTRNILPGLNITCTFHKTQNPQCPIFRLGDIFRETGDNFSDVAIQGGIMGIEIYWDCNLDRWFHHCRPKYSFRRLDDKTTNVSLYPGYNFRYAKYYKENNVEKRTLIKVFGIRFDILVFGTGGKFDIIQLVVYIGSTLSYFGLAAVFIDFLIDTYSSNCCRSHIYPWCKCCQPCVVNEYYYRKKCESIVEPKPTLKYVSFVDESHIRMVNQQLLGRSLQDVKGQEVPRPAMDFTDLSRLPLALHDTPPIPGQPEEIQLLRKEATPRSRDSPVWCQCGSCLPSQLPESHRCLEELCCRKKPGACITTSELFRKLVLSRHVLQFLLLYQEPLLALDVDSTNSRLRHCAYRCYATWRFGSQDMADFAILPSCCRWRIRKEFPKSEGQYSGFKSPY
In words: YO-PRO-1 dye uptake assay in U373 cells stably expressing P2X7. The assay is classed as cell-based. Set-up: The complete open reading frame of human P2X7 was amplified from Incyte clone 148057; expressed in transfected cells. The following applies: dye uptake through P2X7, U373 cells, 300 μM BzATP, 5 μM YO-PRO-1, test compounds 30 nM to 3 μM; read-out: IC50. A digest of the protocol:
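U373 cells stably expressing human P2X7 preincubated 20 min at 37° C. with compound (30 nM to 3 μM) in Mg/Ca-free HBSS. YO-PRO-1 (5 μM final) and BzATP (300 μM final) then added for 1.5 h at 37° C.; dye-uptake fluorescence compared with compound-free control.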
For the compound `Fc1ccc(CNC2=N[C@@H](c3ccccc3Br)[C@@H](c3ccccc3Br)N2)cc1` [[cis-4,5-bis-(2-Bromophenyl)-4,5-dihydro-1H-imidazol-2-yl]-(4-fluorobenzyl)amine hydrochloride], the negative logarithm of the IC50 (pIC50) (usually the negative decadic logarithm of the IC50, by convention in mol/L) is 6.05.
As to `Brc1cccc(CNC2=N[C@@H](c3ccccc3)[C@@H](c3ccccc3)N2)c1` [cis-4,5-diphenyl-2-(3-bromobenzyl)amino-4,5-dihydro-1H-imidazole], the negative-log IC50 (pIC50) was 6.65.
For `O=C(Nc1ccccc1)OC(C1=NC(c2ccccc2)C(c2ccccc2)N1)c1ccccc1` (centres unmarked) [trifluoroacetate], the pIC50 was 6.20.
Regarding `Brc1ccccc1CNC1=N[C@@H](c2ccccc2)[C@@H](c2ccccc2)N1` [cis-4,5-diphenyl-2-(2-bromobenzyl)amino-4,5-dihydro-1H-imidazole], the pIC50 is 6.30.
In the case of `Clc1ccc([C@H]2NC(NCc3ccccc3)=N[C@H]2c2ccc(Cl)cc2)cc1` [[cis-4,5-bis-(4-Chlorophenyl)-4,5-dihydro-1H-imidazol-2-yl]-benzylamine hydrochloride], the negative-log IC50 (pIC50) is 6.39.
Then `c1ccc(C(CC2=N[C@@H](c3ccccc3)[C@@H](c3ccccc3)N2)c2ccccc2)cc1` [2-[2,2-diphenylethyl]-cis-4,5-diphenyl-4,5-dihydro-1H-imidazole trifluoroacetate], with 6.49; and `Cc1cccc(CNC2=N[C@@H](c3ccccc3)[C@@H](c3ccccc3)N2)c1` [cis-4,5-diphenyl-2-(3-methylbenzyl)amino-4,5-dihydro-1H-imidazole], with 6.73.
With `Fc1cccc([C@H]2NC(COc3ccccc3F)=N[C@H]2c2cccc(F)c2)c1` [2-[(2-Fluorophenoxy)methyl]-cis-4,5-bis-(3-fluorophenyl)-4,5-dihydro-1H-imidazole], the negative logarithm of the IC50 (pIC50) is 6.08.
Regarding `FC(F)(F)c1ccc(CC2=N[C@@H](c3ccccc3)[C@@H](c3ccccc3)N2)cc1` [2-(4-Trifluoromethylbenzyl)-cis-4,5-diphenyl-4,5-dihydro-1H-imidazole trifluoroacetate], the pIC50 was 6.39.
On to `Clc1ccccc1CCC1=N[C@@H](c2ccccc2)[C@@H](c2ccccc2)N1` [2-[2-(2-Chlorophenyl)ethyl]-cis-4,5-diphenyl-4,5-dihydro-1H-imidazole trifluoroacetate], for which the negative-log IC50 (pIC50) is 7.32.
For the compound `Cc1ccccc1CCC1=N[C@H](c2ccccc2)[C@H](c2ccccc2)N1` [cis-4,5-diphenyl-2-(2-(2-methylphenyl)ethyl)-4,5-dihydro-1H-imidazole], the pIC50 is 7.38.
As to `Fc1cccc([C@H]2NC(CCc3ccccc3)=N[C@H]2c2cccc(F)c2)c1` [cis-4,5-bis(3-fluorophenyl)-2-(2-phenylethyl)-4,5-dihydro-1H-imidazole], the pIC50 is 6.84.
Take `Fc1ccc([C@H]2NC(NCc3ccccc3)=N[C@H]2c2ccc(F)cc2)cc1` [[cis-4,5-bis-(4-Fluorophenyl)-4,5-dihydro-1H-imidazol-2-yl]-benzylamine hydrochloride]: the negative-log IC50 (pIC50) was 6.43.
Then `Cc1ccccc1CSC1=N[C@@H](c2ccccc2)[C@@H](c2ccccc2)N1` [cis-4,5-diphenyl-2-(2-methylbenzyl)thio-4,5-dihydro-1H-imidazole], with 6.35.
On to `CC(OCC1=N[C@@](C)(c2ccccc2)[C@@H](c2ccccc2)N1)C1CC1` (relative stereo) [2-[(1-Cyclopropyl-1-ethoxy)methyl]-cis-4,5-diphenyl-4-methyl-4,5-dihydro-1H-imidazole trifluoroacetate], for which the pIC50 was 6.40.
As for `c1ccc(CCCC2=N[C@H](c3ccccc3)[C@H](c3ccccc3)N2)cc1` [2-[3-phenyl-propyl]-cis-4,5-diphenyl-4,5-dihydro-1H-imidazole trifluoroacetate], the negative-log IC50 (pIC50) was 6.27.
For `Fc1cccc(OCC2=N[C@@H](c3cccc(F)c3)[C@@H](c3cccc(F)c3)N2)c1` [2-[(3-Fluorophenoxy)methyl]-cis-4,5-bis-(3-fluorophenyl)-4,5-dihydro-1H-imidazole], the pIC50 is 6.50.
Under `Clc1ccccc1[C@H]1NC(NCc2ccccc2)=N[C@H]1c1ccccc1Cl` [[cis-4,5-bis-(2-Chlorophenyl)-4,5-dihydro-1H-imidazol-2-yl]-benzylamine hydrochloride] stands 6.03.
As to `C[C@@]1(c2ccccc2)N=C(COC2CCOc3ccccc32)N[C@@H]1c1ccccc1` (some centres unmarked), the pIC50 is 6.31.
Then `Fc1ccc(CC2=N[C@H](c3ccccc3)[C@H](c3ccccc3)N2)cc1` [cis-4,5-diphenyl-2-(4-fluorobenzyl)-4,5-dihydro-1H-imidazole], with 7.34; and `c1ccc(COCC2=N[C@@H](c3ccccc3)[C@@H](c3ccccc3)N2)cc1` [cis-4,5-diphenyl-2-benzyloxymethyl-4,5-dihydro-1H-imidazole], with 6.49.
As for `Fc1ccc(CC2=N[C@@H](c3cccc(F)c3)[C@@H](c3cccc(F)c3)N2)cc1` [2-(4-Fluorobenzyl)-cis-4,5-bis-(3-fluorophenyl)-4,5-dihydro-1H-imidazole trifluoroacetate], the pIC50 was 6.66.
As to `Fc1cccc(CC2=N[C@@H](c3ccccc3)[C@@H](c3ccccc3)N2)c1F` [2-(2,3-Difluorobenzyl)-cis-4,5-diphenyl-4,5-dihydro-1H-imidazole trifluoroacetate], the pIC50 was 6.03.
With `c1ccc(CNC2=N[C@@H](c3ccccc3)[C@@H](c3ccccc3)N2)cc1` [cis-4,5-diphenyl-2-benzylamino-4,5-dihydro-1H-imidazole], the pIC50 is 6.87.
`c1ccc([C@H]2NC(COC3CCCCC3)=N[C@H]2c2ccccc2)cc1` [2-[(Cyclohexyloxy)methyl]-cis-4,5-diphenyl-4,5-dihydro-1H-imidazole trifluoroacetate]: the pIC50 was 6.50.
Regarding `CC(Oc1ccccc1)C1=N[C@@](C)(c2ccccc2)[C@@H](c2ccccc2)N1` (relative stereo) [2-(1-Phenoxyethyl)-cis-4,5-diphenyl-4-methyl-4,5-dihydro-1H-imidazole trifluoroacetate], the negative-log IC50 (pIC50) was 6.45.
For the compound `C[C@@]1(c2cccc(F)c2)N=C(CCc2ccccc2)N[C@@H]1c1cccc(F)c1` (relative stereo) [2-Phenethyl-cis-4,5-bis-(3-fluorophenyl)-4-methyl-4,5-dihydro-1H-imidazole hydrochloride], the negative logarithm of the IC50 (pIC50) is 7.18.
Consider `Clc1cccc(CNC2=N[C@@H](c3ccccc3)[C@@H](c3ccccc3)N2)c1` [cis-4,5-diphenyl-2-(3-chlorobenzyl)amino-4,5-dihydro-1H-imidazole], for which the pIC50 is 6.79.
Then `Fc1ccc(CSC2=N[C@@H](c3ccccc3)[C@@H](c3ccccc3)N2)cc1F` [2-[(3,4-Difluorobenzyl)thio]-cis-4,5-diphenyl-4,5-dihydro-1H-imidazole hydrochloride], with 6.34.
As for `COc1ccccc1CCC1=N[C@@H](c2ccccc2)[C@@H](c2ccccc2)N1` [2-[2-(2-Methoxyphenyl)ethyl]-cis-4,5-diphenyl-4,5-dihydro-1H-imidazole trifluoroacetate], the negative logarithm of the IC50 (pIC50) was 6.08.
Then `Cc1cccc(CC2=N[C@@H](c3ccccc3)[C@@H](c3ccccc3)N2)c1` [cis-4,5-diphenyl-2-(3-methylbenzyl)-4,5-dihydro-1H-imidazole], with 6.42.
In the case of `Fc1ccc(F)c(CC2=N[C@@H](c3ccccc3)[C@@H](c3ccccc3)N2)c1` [trifluoroacetate], the negative logarithm of the IC50 (pIC50) is 6.85.
